# Results: PMC9200803, “Design, synthesis, and biological evaluation of tetrahydroquinolinones and tetrahydroquinolines with anticancer activity” (Scientific Reports, 2022)
# Experiments:
# Assay type in all cases: cell-based, human
# A-549 cells [1] = assay: MTT cell viability assay, A-549
# Method: (§1) To evaluate the effects of the newly synthesized tetrahydroquinolin-2(1H)-one derivatives on cell viability, we treated human colon cancer cells HCT-116, human breast cancer cells MCF-7, and human non-small cell lung cancer cells A-549 with different concentrations of the compounds for 72 h. After incubation, the MTT (3-(4,5-dimethylthiazol-2-yl)-2,5-diphenyltetrazolium bromide) assay was performed and the cytotoxic potency of compounds (expressed in IC50) on the cells was determined in comparison to control cells treated with 1% of dimethyl sulfoxide (DMSO) (Table 1). […] We also compared the activity of 20d and 19b to the reference control drug Cisplatin, which is widely used in chemotherapy.
# (§2) A-549 (CCL-185) and MCF-7 ([…]) cells were cultured in RPMI-1640 medium, while HCT-116 (CVCL-427), (hMLH1)-deficient (MMR^–) and hMLH1-proficient (MMR^+) RKO cells were cultured in McCoy’s 5A medium. The culture media were supplemented with 10% fetal bovine serum, 2 mM L-glutamine, and antibiotics (penicillin 62.6 µg/ml and streptomycin 40 µg/ml). Cultivation of cell lines was carried out at 37 °C under a humidified atmosphere containing 5% CO2, and the cultures were routinely screened for Mycoplasma contamination. A-549, MCF-7, and HCT-116 cells were obtained from American Type Culture Collection (ATCC), while RKO colon carcinoma cells were a kind gift of Dr Timothy Kinsella (Brown University, USA).
# (§3) The viability of cells was determined in response to the newly synthesized compounds using the MTT (Sigma-Aldrich) assay. Briefly, cells were seeded into 96-well plates and allowed to attach overnight. Then, cells were exposed to various concentrations of compounds for 24, 48 or 72 h. Negative controls were treated with the same amount of DMSO solvent (1%). After treatment, the MTT solution (0.4 mg/ml) was added to each well and allowed to react with cells for 2–3 h at 37 °C. Next, the medium was removed, the formazan product formed was dissolved in 100 μl of DMSO, and the absorbance was determined at 540 nm using an ASYS UVM340 microplate reader (Biochrom Ltd.). The IC50 value, which represents the concentration of the compound required to inhibit cell growth by 50% compared to vehicle, was calculated using GraphPad Prism 8 software based on the curves plotting survival against dose averaged from at least three independent experiments.
# [2] = tested on: hMLH1-deficient (MMR–) RKO cells; assay: MTT cell viability assay, hMLH1-deficient (MMR–) RKO
# Excerpt: We further attempted to determine whether 20d-induced cancer cell death was related to the induction of ROS production in HCT-116 cells. For this purpose, we pretreated cells with N-acetyl-L-cysteine (NAC), which is a commonly used antioxidant and ROS scavenger. […] HCT-116 cell line has high-frequency microsatellite instability, which is associated with deficient DNA mismatch repair (MMR)[31]. The MMR system corrects DNA-mismatched and insertion–deletion loop bases generated during DNA replication. One of the key proteins involved in the MMR pathway is MLH1, which is mutated or epigenetically silenced in many MMR-deficient (MMR^–) cells, such as HCT-116[33]. To further determine the selectivity for MMR deficiency, we analyzed the cell viability of human MutL homologue 1 (hMLH1)-deficient (MMR^–) and hMLH1-proficient (MMR^+) RKO human colon carcinoma cell lines. The latter was established by transfecting hMLH1 cDNA into MMR^− RKO cell line[34]. In MMR^– RKO cells, the hMLH1 gene promoter was silenced transcriptionally by hypermethylation. […]
# The viability of cells was determined in response to the newly synthesized compounds using the MTT (Sigma-Aldrich) assay. […] Next, the medium was removed, the formazan product formed was dissolved in 100 μl of DMSO, and the absorbance was determined at 540 nm using an ASYS UVM340 microplate reader (Biochrom Ltd.). […]
# HCT-116 cells [3] = assay: MTT cell viability assay, HCT-116; settings: for IC50: MTT, 72 h, IC50 ± SD
# Method: as §1, §2, §3
# A-549 cells [4] = assay: ROS level, H2DCFDA probe, flow cytometry, A-549; settings: A-549, IC50 concentration, 1-24 h
# HEK293 cells = assay: MTT cell viability assay, HEK293; settings: Homo sapiens, HEK293, IC50 ± SD
# HCT-116 cells [5] = assay: Wound healing assay; settings: HCT-116, 10 and 20 µM, 30 and 36 h of treatment
# Method: A decrease in cell–cell adhesion correlates with tumor invasion and metastasis. Migration leads to spreading and metastasis of cancer cells and is thus associated with poor prognosis of many types of cancer. Moreover, studies indicate that metastasis is the major cause of death in patients with colorectal cancer (CRC)[58]. To investigate the effect of 20d on migration, HCT-116 cells were cultured and investigated by wound healing assay. The percentage of migration was monitored over time by capturing a series of images after every 6 h up to 36 h of treatment.
# The antimigratory properties of 20d were investigated in HCT-116 cell line using wound healing assay. Briefly, cells were seeded and allowed to attach to the Ibidi-silicone insert on a cover glass-bottom 24-well plate for live-cell imaging. Next, the inserts were dislodged, and subsequently, cells were washed with a fresh medium and incubated with various concentrations of 20d in an imaging chamber (cellVivo incubation system, Olympus). For monitoring the migration of cells by live-cell microscopy with time-lapse photography, images were captured every 15 min for 36 h under 10× magnification using a fluorescence microscope (IX83 Inverted Microscope, Olympus) equipped with an XC50 phase-contrast digital color camera (Olympus). The distance between gaps was measured using ImageJ software.
# HCT-116 cells [6] = assay: Colony formation (clonogenic) assay; settings: HCT-116, 24 h pretreatment, 9 days culture
# Method: A total of 500 HCT-116 cells/well was seeded into six-well plates. After attachment, cells were pretreated with DMSO (1%) or various concentrations of 20d and 19b for 24 h. Following incubation, the medium was changed, and cells were cultured for 9 days. After culturing, cells were washed with phosphate-buffered saline (PBS), fixed with 100% methanol for 30 min, and then stained with 0.5% crystal violet for 15 min. The plates were air-dried, and visible colonies were counted using ImageJ software. The percentage viability of cells was calculated in comparison to the control.
structure (smiles),measurement,setting,value
"O=C(Nc1cccc(F)c1)OC1CCCc2c(-c3ccccc3)cc(=O)[nH]c21 (centres unmarked) [Compound 20d, (2-oxo-4-phenyl-5,6,7,8-tetrahydroquinolin-8-yl) N-(3-fluorophenyl)carbamate]",fold lower concentration than Cisplatin suppressing 50% of cell viability,A-549 cells [1]; A-549,5 fold
same,IC50,"A-549 cells [1]; Homo sapiens, A549, MTT, 72 h, IC50 ± SD",12.6 ± 0.54 µM
same,IC50,"[2]; Homo sapiens, RKO, mean ± SD",1.21 ± 0.13 µM
same,fold higher sensitivity of MMR– RKO vs MMR+ RKO cells,[2]; p < 0.001,3.95 fold
same,cytotoxic effect after 24 h and 48 h exposure,"HCT-116 cells [3]; HCT-116, 10 and 20 µM",slight cytotoxic effect
same,IC50,"HCT-116 cells [3]; Homo sapiens, HCT-116, 72 h",~13 µM
same,IC50,HCT-116 cells [3],12 ± 0.57 µM
same,increase in ROS level compared to vehicle,A-549 cells [4],~5%
same,IC50,HEK293 cells,> 50 µM
same,inhibition of migration,HCT-116 cells [5],30–50%
same,formation of colonies,HCT-116 cells [6],effectively inhibited the formation of colonies in a concentration-dependent manner
